Results reported in patent US10537652B2, “Cyclic urea compounds as granzyme B inhibitors” (viDA Therapeutics Inc., priority 2014, dated 2020).

Biological target: T1, GzmB (Homo sapiens, UniProt P10144)
T1 construct: purchased Froelich Lab, Northshore University Health Systems Research Institute, Evanston, Ill., USA
Assay: Inhibition of Fibronectin Cleavage by GzmB (Example D7)
Format: biochemical
Conditions: 20 nM granzyme B, 30° C.; for inhibition at 0.62 µM: inhibitor 0.62 uM, read-out: Percent Inhibition at Inhibitor Concentration 0.62 uM; for inhibition at 5.56 µM: inhibitor 5.56 uM, read-out: Percent Inhibition at Inhibitor Concentration 5.56 uM; for inhibition at 50 µM: inhibitor 50 uM, read-out: Percent Inhibition at Inhibitor Concentration 50 uM
Protocol: Black, 96 well high-binding assay plates (Griener Bio-one) were treated overnight at 4° C. with 40 uL of 8 ug/mL Hilyte Fluor 488 labeled Fibronectin (Cytoskeleton, Inc). After fibronectin coating, plates were washed 3 times in buffer (20 mM Tris-HCl, pH 7.4, 20 mM NaCl) then once with granzyme B assay buffer (50 mM HEPES, pH 7.5, 0.1% CHAPS). After washing, 50 uL of granzyme B assay buffer was added to each fibronectin-coated well. In a separate non-binding 96 well assay plate 5 uL of 20X inhibitor serial dilution stocks were added to 45 uL of 2.22x GzmB mix to establish inhibition (enzyme/inhibitor mixes were all prepared in granzyme B assay buffer and were incubated first at room temperature for 20 minutes, then at 30° C. for another 10 minutes). After incubation, 50 uL of this 2x enzyme/inhibitor mix was added to the corresponding coated well to initiate fibronectin cleavage (20 nM final granzyme B concentration, 8-point inhibitor dilution series starting at 50 uM). The assay was conducted at 30° C. in the TECAN plate reader (TECAN INFINITE® M1000 Pro), which was programmed to monitor the kinetic fluorescence polarization signal (filter set Ex/Em 470 nm/527 nm) with readings taken every minute, for 1 hour. Proteolytic activity was evaluated as the rate of fluorescence enhancement in the parallel emission over the linear range of the reaction. % Inhibition values were calculated from assay controls and the resulting data is shown in Table 6.

T1 sequence (P10144 21-247): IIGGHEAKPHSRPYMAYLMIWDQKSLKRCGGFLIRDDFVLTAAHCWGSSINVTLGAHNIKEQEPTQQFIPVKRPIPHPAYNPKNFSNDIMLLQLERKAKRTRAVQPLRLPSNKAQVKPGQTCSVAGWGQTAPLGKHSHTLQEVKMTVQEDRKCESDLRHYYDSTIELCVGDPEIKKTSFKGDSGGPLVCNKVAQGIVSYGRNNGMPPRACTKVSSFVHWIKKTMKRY

Row | SMILES | inhibition at 0.62 µM [%] | inhibition at 5.56 µM [%] | inhibition at 50 µM [%]
1 | CC[C@H](C)[C@H](NC(=O)CCC(=O)O)C(=O)NCC(=O)N1C(=O)NC[C@H]1C(=O)NCc1nn[nH]n1 [Compound C1, 4-(((2S,3S)-1-((2-((S)-5-(((2H-tetrazol-5-yl)methyl)carbamoyl)-2-oxoimidazolidin-1-yl)-2-oxoethyl)amino)-3-methyl-1-oxopentan-2-yl)amino)-4-oxobutanoic acid] | 39 | 69 | 86
2 | CC[C@H](C)[C@H](NC(=O)CCC(=O)O)C(=O)NCC(=O)N1C(=O)N(C2CCCCC2)C[C@H]1C(=O)NCc1nn[nH]n1 [Compound C2, 4-(((2S,3S)-1-((2-((S)-5-(((2H-TETRAZOL-5-YL)METHYL)CARBAMOYL)-3-CYCLOHEXYL-2-OXOIMIDAZOLIDIN-1-YL)-2-OXOETHYL)AMINO)-3-METHYL-1-OXOPENTAN-2-YL)AMINO)-4-OXOBUTANOIC ACID] | 75 | 91 | 96
